Measured values taken from patent publication US12686657B2, “Anti-inflammatory carboxamide derivatives” (BIOMEDCODE HELLAS SA, priority 2021, dated 2026).
Read-outs that look alike come from different tables or passages of the source.

What was measured:
Type in all cases: cell-based, mice
[1] = test system: hTNFtg SFs; assay: Legendplex pro-inflammatory chemokine panel on hTNFTg synovial fibroblasts; conditions: compound 10 μM
Description: (§1) SFs were isolated as previously described by Armaka et al., 2009, from the ankle joints of hTNFtg or CBA/C57BL6 wild type (wt) littermates. Briefly, ankle joints were digested with Collagenase IV (Sigma Aldrich, C5138) for 45 minutes at a 37° C. shaking waterbath and after 5 days in culture at 37° C. and 5% CO2, a depletion of CD45+ lineage cells was performed using a Biotin anti-mouse CD45 Antibody (Biolegend, 103104) and Dynabeads™ Biotin Binder (ThermoFisher 11047), according to the manufacturer's protocol. After 10 days in culture, SFs were seeded overnight (O/N) at a concentration of 2×10^4 cells/well in a 96 well plate in 1×DMEM, supplemented with 100 U/ml Penicillin Streptomycin (P/S) and 10% Fetal Bovine Serum (FBS). The next day the cells were synchronized by starvation that included their O/N plating in low serum medium (0.5% FBS). Following the O/N starvation, the hTNFg and the WT SFs were treated with different concentrations of the experimental compounds. The SFs were at the same time activated with 10 ng/ml hTNF (Peprotech, 300-01A). 48 h following the treatment the cell culture supernatants were collected and analyzed by ELISA (R&S Systems, Duoset, DY478 and DY760) according to the manufacturer's protocol, for the detection of CCL5/Rantes and CCL20/Mip3, two known inflammatory chemokines. The IC50 values were determined as the concentration of the compounds required to reduce the levels of secreted CCL5 and CCL20 by 50%.
(§2) The supernatants of the SFs were also analyzed using the Mouse pro-inflammatory chemokine panel from Legendplex™ (Biolegend, 740007), according to manufacturer's instructions, for the simultaneous detection of 13 Mouse chemokines.
(§3) The anti-inflammatory potential of the test compounds 51, 52, 53, E and F on SFs was also assessed using the Mouse pro-inflammatory chemokine panel from Legendplex that allows the simultaneous detection of 13 Mouse chemokines. The effect of compound 51 on SFs was assessed at a dose of 25 μM, while the effect of the test compounds 52, 53, E and F was assessed at a dose of 10 μM. Numbers represent percentages of the chemokine levels secreted from the treated SFs compared to 100% levels of the chemokines detected in the untreated cells (i.e. either hTNFTg SFs or hTNF-activated wt SFs).
(§4) Table 9 summarizes the effect of the test compounds 51, 52 and 53, E and F on the inflammatory chemokines secreted from activated SFs. WT SFs were stimulated with 10 ng/ml hTNF.

[2] = test system: hTNFtg SFs; assay: CCL5 and CCL20 ELISA on hTNFtg synovial fibroblasts; conditions: Mus musculus, Fibroblast; for activity at 10 µM: compound 10 μM; for activity at 10 µM / activity at 50 µM / activity at 25 µM: 48 h; for activity at 50 µM: compound 50 μM; for activity at 25 µM: compound 25 μM
Description: Primary SFs were derived from a) human TNF transgenic (hTNFTg) mice (Keffer et al., 1991) as well as from b) CBA/C57BL6 wild type mice.
hTNFtg mice overexpress human TNF, resulting in the spontaneous development of arthritis.
as §1
Table 7 summarizes the reduction of CCL5 and CCL20 levels achieved with the test compounds of the invention. Data are presented as percentages of the chemokine levels detected in treated cells compared to 100% levels of the chemokines detected in the untreated cells.
Table 8 summarizes the values of IC50 and toxicity for the test compounds of the invention. Dose response curves regarding the WT SFs were produced with 10 ng/ml hTNF stimulation for all compounds, with the exception of the compounds E and F, where WT cells were induced using hTNF at 1 ng/ml: […]

[3] = test system: hTNF-activated wt SFs; assay: Legendplex pro-inflammatory chemokine panel on hTNF-activated wt synovial fibroblasts; conditions: compound 10 μM; 10 ng/ml hTNF
Description: as §1, §2, §3, §4

[4] = test system: SFs and PMCs; assay: Compound cytotoxicity, Crystal Violet assay
Description: The toxicity of the test compounds was assessed at several concentrations using the Crystal Violet assay on both SFs and PMCs. Adherent viable cells were Methanol fixed and stained with Crystal Violet. Optical density was quantified at […], as described in Feoktistova et al., 2016.

[5] = test system: LPS activated thioglyclolate peritoneal macrophages; assay: Cytokines and chemokines secreted from LPS activated thioglycolate peritoneal macrophages (Legendplex panels); conditions: for IC50: Mus musculus, Peritoneal macrophage, read-out: IL6 IC50
Description: Activated peritoneal macrophages were isolated from the peritoneal lavage of C57BL/6 wild type mice, 5 days after the peritoneal administration of 3% Thioglucolate, as described in Jiménez-García et al., 2015. The isolated cells were seeded at a concentration of 5×10^5 cells/well in a 48 well plate. 4 h after isolation, cells were starved O/N in Optimem (Gibco, 11058, 100 U/ml P/S). The cells were further activated with 100 ng/ml Lipopolysaccharide (LPS, Sigma-Aldrich, L2630) along with the test compounds at a dose of 10 μM. 48 h later the supernatants of the cell cultures were collected and analyzed using the Mouse 13 plex Legendplex Chemokine (Biolegend, 740007) and Cytokine (Bioloegend, 740446) panels according the manufacturer's instructions.
The same protocol was repeated reducing the concentration of LPS to 10 ng/ml in order to determine the efficiency of the tested compounds.
In order to assess the anti-inflammatory activity of the compounds of the invention, their ability to reduce the levels of secreted cytokines and chemokines from activated macrophages, which are key inflammatory cells of the immune system, was measured. Test compounds 51, 52 and 53, E and F were tested at a dose of 10 μM on LPS induced thioglycolate derived peritoneal macrophages. Chemokine and cytokine analyses were performed using the Mouse pro-inflammatory panels from Legendplex and their levels are presented as a percentage of the levels detected in the untreated control cells (Tables 6a and 6b). Data presented for compounds 51, 52, 53 refer to LPS stimulation of 100 ng/ml, while compounds E and F were tested upon LPS stimulation of 10 ng/ml.

[6] = read-out: CCL5 hTNFtg, percentage of level in untreated cells
[7] = read-out: CCL20 hTNFtg, percentage of level in untreated cells
[8] = read-out: IC50 (μM) CCL5 hTNFtg
[9] = read-out: IC50 (μM) CCL20 hTNFtg
[10] = 10 μM compound, LPS 100 ng/ml, 48 h
[11] = 10 μM compound, LPS 10 ng/ml, 48 h

| IC50 ([5]; LPS 10 ng/ml) [µM] | Compound | EOTAXIN hTNFTg, percentage of level in untreated cells [1] [%] | KC hTNFTg, percentage of level in untreated cells [1] [%] | LIX hTNFTg, percentage of level in untreated cells [1] [%] | MCP1 hTNFTg, percentage of level in untreated cells [1] [%] | MIP1β hTNFTg, percentage of level in untreated cells [1] [%] | activity at 10 µM [2, 6] [%] | activity at 10 µM [2, 7] [%] | IC50 [2, 8] [µM] | IC50 [2, 9] [µM] | Cell Toxicity [4] [µM] | activity at 25 µM [2, 6] [%] | activity at 25 µM [2, 7] [%] | CCL5 level, percentage of untreated control cells [5, 11] [%] | IL6 level, percentage of untreated control cells [5, 11] [%] | MCP1 level, percentage of untreated control cells [5, 11] [%] | MDC level, percentage of untreated control cells [5, 11] [%] | MIP1α level, percentage of untreated control cells [5, 11] [%] | MIP1β level, percentage of untreated control cells [5, 11] [%] | also measured |
| --- | --- | --- | --- | --- | --- | --- | --- | --- | --- | --- | --- | --- | --- | --- | --- | --- | --- | --- | --- | --- |
|  | COc1cc(N)c(Cl)cc1C(=O)NCC1(Nc2ccc(Cl)cc2)CCCCCC1 [Compound 53, 4-amino-5-chloro-N-((1-((4-chlorophenyl)amino)cycloheptyl)methyl)-2-methoxybenzamide] | 9 | 49 | 40 | 49.5 | 33 | 40 | 22 | 2.3 | 3.2 | >100 |  |  |  |  |  |  |  |  | activity at 50 µM [2, 6]: 34%; activity at 50 µM [2, 7]: 22%; EOTAXIN WT, percentage of level in untreated cells [3]: 59%; KC WT, percentage of level in untreated cells [3]: 68%; LIX WT, percentage of level in untreated cells [3]: 24%; MCP1 WT, percentage of level in untreated cells [3]: 57%; CCL5 level, percentage of untreated control cells [5, 10]: 22%; GMCSF level, percentage of untreated control cells [5, 10]: 38%; IL1α level, percentage of untreated control cells [5, 10]: 30%; IL6 level, percentage of untreated control cells [5, 10]: 15%; IL12p70 level, percentage of untreated control cells [5, 10]: 18%; IL27 level, percentage of untreated control cells [5, 10]: 75%; MCP1 level, percentage of untreated control cells [5, 10]: 75%; MDC level, percentage of untreated control cells [5, 10]: 52%; MIP1α level, percentage of untreated control cells [5, 10]: 60%; MIP1β level, percentage of untreated control cells [5, 10]: 67% |
| 0.57 | COc1cc(N)c(Cl)cc1C(=O)NCC1(Nc2ccc(F)cc2Cl)CCCCCC1 [E, 4-amino-5-chloro-N-((1-((2-chloro-4-fluorophenyl)amino)cycloheptyl)methyl)-2-methoxybenzamide] | 2.5 | 32 | 19.5 | 25.5 | 24 | 8.2 | 14 | 1.69 | 4.07 | >150 | 5 | 20 | 8 | 8.8 | 9.3 | 54 | 50 | 41 |  |
| 2.67 | COc1cc(N)c(Cl)cc1C(=O)NCC1(Nc2cccc(OC(F)(F)F)c2)CCCCCC1 [F, 4-amino-5-chloro-2-methoxy-N-((1-((3-(trifluoromethoxy)phenyl)amino)cycloheptyl)methyl)benzamide] | 0 | 35 | 1 | 13.5 | 12.5 | 0 | 24 | < 0.01 | < 0.01 | >25 | 0 | 29 | 2 | 5.3 | 9 | 47 | 45 | 26 |  |
